Like-named read-outs stand apart in the source and are kept apart here.
Key:
SARS-CoV-2 = test: microbe, parasite or virus in culture; type: cell-based; details: for EC50: Severe acute respiratory syndrome coronavirus 2, Vero, read-out: SARS-CoV-2 EC50
in vitro = type: cell-based, African green monkey; details: African green monkey, with CP100356, 2 μM
SARS-CoV-2 nsp13 [1] = target: T1, SARS-CoV-2 nsp13 (Severe acute respiratory syndrome coronavirus 2, UniProt P0DTD1); test: biochemical; type: biochemical; details: for ATPase, percentage of control at the highest tested compound concentration: without BSA/TCEP
SARS-CoV-2 nsp13 [2] = target: T1, SARS-CoV-2 nsp13; test: biochemical
SARS-CoV-2 nsp13 [3] = target: T1, SARS-CoV-2 nsp13; details: for impact of DTT on inhibition of unwinding activity: presence or absence of 1 mM DTT
SARS-CoV-2 nsp13 [4] = target: T1, SARS-CoV-2 nsp13; details: read-out: NTPase activity IC50; cited from earlier work
Vero E6-GFP cells = test: in vitro; type: cell-based, African green monkey; details: read-out: Vero E6-GFP CC50; cell viability, 2 μM CP100356
[5] = ATPase BSA-TCEP-polyrA IC50, BSA, TCEP and poly(A) ssRNA
[6] = ATPase IC50, without BSA/TCEP, no nucleic acid
[7] = unwinding BSA-TCEP IC50, 10 μg/mL BSA and 180 μM TCEP
[8] = unwinding IC50, without BSA/TCEP

Molecule	EC50 (SARS-CoV-2)	CC50 at 72 h (in vitro)	viability at 72 h (in vitro)	IC50 (SARS-CoV-2 nsp13 [1]; [6])	ATPase, percentage of control at the highest tested compound concentration (SARS-CoV-2 nsp13 [1])	IC50 (SARS-CoV-2 nsp13 [2]; [8])	SARS-CoV-2, percentage of control at the highest tested compound concentration (SARS-CoV-2)	unwinding, percentage of control at the highest tested compound concentration (SARS-CoV-2 nsp13 [3]; without BSA/TCEP)	further results
O=c1c(O)c(-c2ccc(O)c(O)c2)oc2cc(O)cc(O)c12 [quercetin]	> 100 µM	> 100 µM	100%	–	–	–	–	–	–
COc1c(O)cc(O)c2c(=O)cc(-c3ccccc3)oc12 [wogonin]	–	–	–	> 30 µM	95%	24.9 ± 5.5 µM	–	–	IC50 (SARS-CoV-2 nsp13 [1]; [5]): > 30 µM; IC50 (SARS-CoV-2 nsp13 [2]; [7]): 74.9 ± 8.3 µM
O=c1c(O)c(-c2ccc(O)cc2)oc2cc(O)cc(O)c12 [kaempferol]	> 100 µM	> 100 µM	100%	> 30 µM	83%	–	>100 (100%)	–	IC50 (SARS-CoV-2 nsp13 [1]; [5]): > 30 µM; impact of DTT on inhibition of unwinding activity (SARS-CoV-2 nsp13 [3]): equally active in the presence and absence of DTT; mode of inhibition of unwinding activity (SARS-CoV-2 nsp13 [3]; versus ATP): noncompetitively versus ATP; unwinding IC50 range in words (SARS-CoV-2 nsp13 [3]; without BSA/TCEP): nanomolar range; IC50 (SARS-CoV-2 nsp13 [2]; [7]): 19 ± 2.1 µM
O=c1c(O)c(-c2cc(O)c(O)c(O)c2)oc2cc(O)cc(O)c12 [myricetin]	> 100 µM	> 100 µM	100%	–	87%	–	>100 (100%)	–	impact of DTT on inhibition of unwinding activity (SARS-CoV-2 nsp13 [3]): equally active in the presence and absence of DTT
C[C@@H]1O[C@@H](OC[C@H]2O[C@@H](Oc3c(-c4ccc(O)c(O)c4)oc4cc(O)cc(O)c4c3=O)[C@H](O)[C@@H](O)[C@@H]2O)[C@H](O)[C@H](O)[C@H]1O [rutin]	–	–	–	–	96%	–	–	75%	–
O=c1cc(-c2ccc(O)cc2)oc2cc(O[C@@H]3O[C@H](CO)[C@@H](O)[C@H](O)[C@H]3O)cc(O)c12 [apigenin-7-O-glucoside]	–	–	–	> 30 µM	99%	> 30 µM	–	100%	–
O=C(O)c1cc(O)c(O)c(O)c1 [gallic acid]	–	–	–	> 30 µM	92%	> 30 µM	–	89%	–
O=c1cc(-c2ccccc2)oc2cc(O)c(O)c(O)c12 [baicalein]	> 100 µM	> 100 µM	100%	–	94%	–	>100 (100%)	–	–
COc1ccc2cc1Oc1ccc(cc1)C[C@H]1c3c(cc4c(c3Oc3cc5c(cc3OC)CCN(C)[C@@H]5C2)OCO4)CCN1C [cepharanthine]	–	–	–	–	–	–	–	–	IC50 (SARS-CoV-2 nsp13 [4]): 400 µM
O=C1c2c(O)cc(O)cc2O[C@H](c2cc(O)c(O)c(O)c2)[C@H]1O [dihydro-myricetin]	–	–	–	–	100%	–	–	–	–
kaempferol-3-O-rutinoside	–	–	–	–	95%	–	–	71%	–
COc1ccc(-c2cc(=O)c3c(O)cc(O)cc3o2)cc1O [diosmetin]	> 100 µM	–	–	–	92%	–	>100 (100%)	–	–
COc1cc(O)c2c(=O)c(-c3ccc(O)cc3)coc2c1 [prunetin]	> 100 µM	> 100 µM	100%	> 30 µM	97%	11.5 ± 1.7 µM	>100 (100%)	–	IC50 (SARS-CoV-2 nsp13 [1]; [5]): > 30 µM; IC50 (SARS-CoV-2 nsp13 [2]; [7]): > 100 µM
Oc1ccc(/C=C/c2cc(O)cc(O)c2)cc1 [resveratrol]	–	–	–	> 30 µM	98%	> 30 µM	–	64%	–
CC(C)C[C@H](NC(=O)OCc1ccccc1)C(=O)N[C@@H](CC1CCNC1=O)C(O)S(=O)(=O)O (stereo partly shown) [GC376, reference compound]	–	–	–	–	–	–	–	–	CC50 (Vero E6-GFP cells): > 100 µM

— PMC9003574 (ACS Pharmacology & Translational Science, 2022)
